Target: P. falciparum apicoplast DNA polymerase (Pf-apPOL) (Plasmodium falciparum, UniProt Q8ILY1)
Assay: Fluorescence-based high-throughput DNA polymerase assay (molecular beacon), primary screen and dose-response
Format: biochemical
Details: for DNA Pol: unit not given, 90 min, 10 µM
Experimental: The HT assay employs a molecular beacon, a stem-loop DNA template with a Cy3 dye and the Black Hole Quencher on the 3′ and 5′ ends of the DNA, respectively. Pf-apPOL concentration is based on a calculated absorptivity of ε280 = 56750 M^−1 cm^−1. Reactions were carried out at 25 °C, using Corning 3575 […] (well-volume, 20 µL). Assays testing for compound inhibition composed of reaction buffer (pH 7.9 in 50 mM potassium acetate, 20 mM Tris-acetate and 10 mM magnesium acetate), Pf-apPOL (20 nM), DNA substrate (20 nM), dNTPs (6 µM), and compound (10 µM in DMSO). The DNA and nucleotide substrates (dNTPs) were at concentrations of 20 nM and 6 µM, respectively, in the assay. Pf-apPOL was incubated in the reaction buffer with dNTPs and the compound of interest (10 µM, in the assay) at 25 °C for 10 min. The DNA substrate was then added and the reaction was allowed to proceed for 90 min at 25 °C.
Each assay plate contained 16 negative controls (no Pf-apPOL, DMSO present) and 16 positive controls (Pf-apPOL present, no DMSO). The fluorescence of each well was determined using a BioTek Synergy Neo fluorescence plate reader using excitation and emission wavelengths of 555 and 570 nm, respectively.
In the above, Min is the average of fluorescence emission of the negative controls (substrate only), Max the average fluorescence emission from the positive controls (enzyme + substrate), and Test the emission from the assays in the presence of compounds (enzyme + compound + substrates). […] […] The IC50 of each compound was determined using Equation (2): (2) IC50= Vmax/(1+ (I/IC50)^n)
In the above, n measures cooperativity, with n > 1 indicating synergistic binding of more than a single molecule of the compound.
To identify apPOL inhibitors we utilised our previously developed high-throughput DNA polymerase assay. The HT assay is based on a molecular beacon DNA template that forms a stem-loop with a Cy3 dye and the Black Hole Quencher on the 3′ and 5′ ends of the DNA, respectively. DNA polymerase activity extends an annealed primer through the stem region, displacing the fluorophore from the quencher, thereby increasing its fluorescence (Figure 1(A)). The assay accurately recapitulates the kinetic behaviour of apPOL, as measured through more conventional low-throughput gel-based assays. The Z′ factor for the assay described here was 0.9 across all plates (data not shown).
Figure 1. High-throughput screening. (A) The fluorescent-based DNA polymerase assay used to screen the compound libraries. The DNA template strand is a hairpin loop with a primer annealed to the loop. The 3’ end of the primer is 11 bases away from the 6 bp duplex. Strand displacement activity of the DNA polymerase separates the Cy3 dye from the Black hole quencher leading to an increase in fluorescent signal. (B) The high-throughput assay workflow. The DNA polymerase is incubated with […] compound for 10 min prior to addition of the hairpin substrate. The reaction is quenched at 3 different time points and the fluorescent signal is measured and % inhibition is determined using the provided equation.

Sequence of P. falciparum apicoplast DNA polymerase (Pf-apPOL) (Q8ILY1 entry or part of it): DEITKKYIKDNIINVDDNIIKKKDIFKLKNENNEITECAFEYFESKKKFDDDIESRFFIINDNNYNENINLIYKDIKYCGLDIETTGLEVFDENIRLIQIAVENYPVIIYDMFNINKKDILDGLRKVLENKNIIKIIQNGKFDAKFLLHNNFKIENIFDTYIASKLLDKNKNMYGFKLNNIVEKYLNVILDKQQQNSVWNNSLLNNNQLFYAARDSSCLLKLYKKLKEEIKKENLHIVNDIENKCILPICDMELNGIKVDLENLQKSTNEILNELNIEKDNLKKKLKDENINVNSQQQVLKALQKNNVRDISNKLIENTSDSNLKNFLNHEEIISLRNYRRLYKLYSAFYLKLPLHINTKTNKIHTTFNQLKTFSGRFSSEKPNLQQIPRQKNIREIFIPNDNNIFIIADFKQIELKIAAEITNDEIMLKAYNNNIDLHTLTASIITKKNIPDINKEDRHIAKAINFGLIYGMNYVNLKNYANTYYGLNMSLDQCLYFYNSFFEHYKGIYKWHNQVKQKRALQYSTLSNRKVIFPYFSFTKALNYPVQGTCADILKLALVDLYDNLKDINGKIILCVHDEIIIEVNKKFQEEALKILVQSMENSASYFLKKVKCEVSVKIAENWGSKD

For `O=C(Nc1c2c(nn1-c1ccc(Oc3ccccc3)cc1)CSC2)c1ccco1` [KU0055927], the “% inhibition Apo pol 10'” value (DRC-1, concentration 2.5) was 13.8958%, the “% inhibition Apo pol 10'” value (DRC-1, concentration 5) was 29.5283% and the “% inhibition Apo pol 10'” value (DRC-1, concentration 10) was 43.1911%. The “% inhibition Apo pol 10'” value (DRC-1, concentration 20) was 76.7664%, the “% inhibition Apo pol 10'” value (DRC-1, concentration 40) was 85.1313% and the “% inhibition Apo pol 10'” value (DRC-1, concentration 80) was 86.5336%. For the same compound, the “% inhibition Apol 90'” value (DRC-1, concentration 2.5) was 4.683%, the “% inhibition Apol 90'” value (DRC-1, concentration 5) was 16.7633% and the “% inhibition Apol 90'” value (DRC-1, concentration 10) was 30.4357%. The “% inhibition Apol 90'” value (DRC-1, concentration 20) was 68.2983%, the “% inhibition Apol 90'” value (DRC-1, concentration 40) was 80.3407% and the “% inhibition Apol 90'” value (DRC-1, concentration 80) was 86.0743%. The “% inhibition apPOL 180'” value (DRC-1, 180', concentration 2.5) was -2.927%, the “% inhibition apPOL 180'” value (DRC-1, 180', concentration 5) was 5.714% and the “% inhibition apPOL 180'” value (DRC-1, 180', concentration 10) was 15.8435%. For the same compound, the “% inhibition apPOL 180'” value (DRC-1, 180', concentration 20) was 54.9886%, the “% inhibition apPOL 180'” value (DRC-1, 180', concentration 40) was 72.0227% and the “% inhibition apPOL 180'” value (DRC-1, 180', concentration 80) was 82.6026%. For the same compound, the “% inhibition Apol 40'” value (DRC-2, 40', concentration 5 (unit not given)) was 12%, the “% inhibition Apol 40'” value (DRC-2, 40', concentration 40 (unit not given)) was 69% and the “% inhibition apPOL 180'” value (DRC-2, 180', concentration 40 (unit not given)) was 69%. For the same compound, the “% inhibition Apo pol 5'” value (DRC-2, concentration 2.5) was 8.44%, the “% inhibition Apo pol 5'” value (DRC-2, concentration 5) was 12% and the “% inhibition Apo pol 5'” value (DRC-2, concentration 5 (unit not given)) was 12%. For the same compound, the “% inhibition Apo pol 5'” value (DRC-2, concentration 10) was 40%, the “% inhibition Apo pol 5'” value (DRC-2, concentration 20) was 51% and the “% inhibition Apo pol 5'” value (DRC-2, concentration 40) was 54%. The “% inhibition Apo pol 5'” value (DRC-2, concentration 80) was 55%, the “% inhibition Apol 40'” value (DRC-2, 40', concentration 2.5) was 9% and the “% inhibition Apol 40'” value (DRC-2, 40', concentration 5) was 12%. For the same compound, the “% inhibition Apol 40'” value (DRC-2, 40', concentration 10) was 47%, the “% inhibition Apol 40'” value (DRC-2, 40', concentration 20) was 65% and the “% inhibition Apol 40'” value (DRC-2, 40', concentration 40) was 69%. For the same compound, the “% inhibition Apol 40'” value (DRC-2, 40', concentration 80) was 72%, the “% inhibition ApPOL 90'” value (DRC-2, concentration 2.5) was 7% and the “% inhibition ApPOL 90'” value (DRC-2, concentration 5) was 9.5%. For the same compound, the “% inhibition ApPOL 90'” value (DRC-2, concentration 10) was 45%, the “% inhibition ApPOL 90'” value (DRC-2, concentration 20) was 66% and the “% inhibition ApPOL 90'” value (DRC-2, concentration 40) was 71%. The “% inhibition ApPOL 90'” value (DRC-2, concentration 80) was 75%, the “% inhibition apPOL 180'” value (DRC-2, 180', concentration 2.5) was 4% and the “% inhibition apPOL 180'” value (DRC-2, 180', concentration 5) was 3.19%. The “% inhibition apPOL 180'” value (DRC-2, 180', concentration 10) was 35%, the “% inhibition apPOL 180'” value (DRC-2, 180', concentration 20) was 62% and the “% inhibition apPOL 180'” value (DRC-2, 180', concentration 40) was 69%. The “% inhibition apPOL 180'” value (DRC-2, 180', concentration 80) was 77%, the “DNA Pol” value (primary screen value of the 186 hits) was 57 and the “DNA Pol” value (primary screen value, head "DNA Pol") was 57.

Reference: publication PMC9090415, “Discovery of small molecule inhibitors of Plasmodium falciparum apicoplast DNA polymerase” (Journal of Enzyme Inhibition and Medicinal Chemistry, 2022)
